The conditions of data set [1]: high doses, up to 800 mg daily; cited from earlier work.
For data set [2] the following is noted: rat, in vivo. The procedure: Mature female Sprague-Dawley rats were used for the experiment. 1 mg of the microparticulate danazol was delivered in a volume of 50 μl to the vaginal vault and the animals sacrificed at the times noted below. The uterus and ovaries were separately homogenized and blood was drawn. All tissues and biological samples were processed. Danazol was extracted and assayed by HPLC methodology.
Danazol was extracted from serum and tissue hexane/chloroform 80/20. For tissues, 1 ml aliquote of each homogenate was taken. The extracted danazol was reconstituted in a water/acetonitrile mobile phase and a Beckman Ultrasphere 5 micron, 4.6 mm×15 cm reverse phase column (C-18 RP) was used for all the HPLC analyses. A danazol recovery study was conducted using danazol drug product. The recovery was determined by comparing the extracted signal with unextracted signal.

SMILES strings stand for the structures.

Take `C#C[C@]1(O)CC[C@H]2[C@@H]3CCC4=Cc5oncc5C[C@]4(C)[C@H]3CC[C@@]21C` [Danazole, Danazol]: the Adverse side effects entry in data set [1] was “adverse side effects are seen”. In data set [2], the “Serum drug levels (in words)” value was “almost undetectable”.

(Values after US6652874B2, “Pharmaceutical preparations and methods for their regional administration” (FemmePharma, priority 1997, dated 2003).)
